Legend:
Format in all cases: cell-based
[1] = test system: monkey meibomian gland epithelial cells; test: Effect on cell number increase in meibomian gland epithelial cells (Experimental Example 3, Cell Counting Kit-8); conditions: medium renewed every 48 hr (3 x 48 hr), relative to non-addition group = 100%, mean ± SD, N = 5 or 10
Excerpt: An eyelid of monkey isolated and stored in D-PBS was transferred to a clean bench, and cell preparation was aseptically performed as follows.
The isolated eyelid was immersed in 80% ethanol for 30 sec, washed three times with D-PBS added with 1% penicillin-streptomycin (Invitrogen), and transferred to a minimum essential medium (MEM; Invitrogen). The adipose tissue and muscular tissue surrounding the meibomian glandular tissue of the eyelid were removed under a stereomicroscope. They were transferred to MEM containing 0.3 U/mL collagenase A (Roche Diagnostics) and 2.4 U/mL dispase II (Roche Diagnostics), and shaken at 37° C. for 4 hr and at 4° C. overnight. The enzyme-treated tissue was set under a stereomicroscope, and the eyelash and eyelid connective tissue were removed to isolate the meibomian glandular tissue. Trypsin-EDTA (4 mL, Invitrogen) was added to the isolated glandular tissue, and the mixture was incubated at 37° C. for 10 min. After incubation, MEM (5 mL) containing 10% FBS (Invitrogen) was added thereto to stop the enzyme reaction, and the tissue constituting cells were dispersed by repeated suction and discharge of the mixture 5 times using an injection syringe equipped with a 21 G injection needle. The cell dispersion was passed through 100 μm and 40 μm nylon filters (Cell Strainer; Falcon), and cell mass and the like contained therein which could not be treated with the enzyme were removed. The cell suspension passed through the filters was collected in a centrifuge tube (50 mL) and centrifuged at room temperature, 1,500 rpm for 5 min. To the cell layers containing the object cells obtained by the centrifugation was added 80 μL of D-PBS containing 0.5% bovine serum albumin (BSA; Sigma-Aldrich), and the cells were sufficiently suspended therein. Anti-Fibroblast Microbeads (Militenyi Biotec, 20 μL) was added thereto, and the mixture was left standing at room temperature for 30 min. After completion of the reaction with an antibody, 2 mL of D-PBS containing 0.5% BSA was added thereto, and the mixture was centrifuged again at room temperature, 1,500 rpm for 5 min. To the cell layers containing the object cells obtained by the centrifugation was added 1 mL of D-PBS containing 0.5% BSA, and the cells were sufficiently suspended therein. The suspension was added dropwise to LD column (Militenyi Biotec) equilibrated in advance with a column washing solution (D-PBS containing 2 mM EDTA (DOJINDO LABORATORIES) and 0.5% BSA). Then, 2 mL of the column washing solution was added dropwise to the LD column. […] The cells collected in the centrifuge tube were centrifuged at room temperature, 1,500 rpm for 5 min, and the supernatant was removed. The sediment was suspended in Defined Keratinocyte Serum Free Medium (5 mL), centrifuged at room temperature, 1,500 rpm for 5 min, and removed the supernatant. Again, the residue was suspended in DK-SFM (3 mL), centrifuged at room temperature and 1,500 rpm for 5 min, and the supernatant was removed. The cells were suspended in DK-SFM (2 mL), and seeded on a 6 well multi-well plate for cell culture, which had been treated with collagen. The seeded cells were cultured in Defined keratinocyte-Serum Free Medium (DK-SFM; Invitrogen, attached Supplement was added as instructed in the preparation protocol), cultured in an incubator (SANYO) set to 37° C., 5% CO2, 95% air, 100% humidity, and the culture medium was exchanged with a new one every 48 hr until the cells became subconfluent.
As a test substance, compound A, [4-[3-[2-(4-trifluoromethyl)phenyl-4-isopropyl-5-thiazolyl]propionyl]-2-methylphenoxy]acetic acid (hereinafter to be referred to as compound B) or [4-[3-[2-(2-hydroxy-4-chlorophenyl)-5-isopropyl-4-oxazolyl]propionyl]-2-methylphenoxy]acetic acid (hereinafter to be referred to as compound C) was used. […]

[2] = test system: Normal human corneal epithelial cells; test: Effect on increase of cell number of normal human corneal epithelial cells (Experimental Example 4, Cell Counting Kit-8); conditions: for effect on cell number of normal human corneal epithelial cells (in words): 0.01-1 μM, conclusion of the test; for cell number increase rate: relative to non-addition group = 100%, mean ± SD, N = 4
Protocol: (§1) Normal human corneal epithelial cells (KURABO) were used.
As a test substance, compound B or compound C was used. Compound B and compound C were each dissolved in ethanol (Wako Pure Chemical Industries, Ltd.) to a concentration 200-fold of the final concentration in a culture medium, and the solution was stored at −80° C. until immediately before use.
As a cell culture medium for consideration of the cell number-increasing effect by compound B and compound C, a culture medium (basal medium) obtained by adding insulin, hydrocortisone and transferrin contained in HCGS growth additive set (KURABO) to EpiLife (KURABO) was used.
Normal human corneal epithelial cells cryopreserved in liquid nitrogen were thawed and the cell number was counted. The total amount thereof was transferred to EpiLife added with all of the HCGS growth additive set (insulin, epidermal growth factor mEGF derived from mouse, hydrocortisone, transferrin, bovine brain hypophysis extract) (4 mL, complete medium), and suspended well therein. The cell suspension was seeded on a fibronectin-coated 24 well plate (Becton Dickinson) at a cell number of 2×10^4 cells/500 μL/well (1×10^4 cells/cm^2 since bottom area was 2 cm^2). After completion of cell seeding, the culture plate was incubated in an incubator set to 37° C., 5% CO2, 95% air and 100% humidity for 24 hr, and the culture medium was changed to 400 μL of the basal medium (EpiLife added with insulin, hydrocortisone and transferrin from HCGS growth additives). After 24 hr thereafter, the culture medium was changed to the following culture medium (each 400 μL). • [1] basal medium alone (non-addition group) • [2] basal medium+mEGF (final concentration: 1 ng/mL; positive control group) • [3] basal medium+compound B (final concentration: 0.01 μM, 0.1 μM, 1 μM; compound B addition group) • [4] basal medium+compound C (final concentration: 0.01 μM, 0.1 μM, 1 μM; compound C addition group)
(§2) Ethanol (5 μL) was added to 1 mL each of culture media and [2] to uniformly set the ethanol concentration of all culture media to 0.5%.
(§3) After 24 hr from the start of the stimulation with compound B or compound C, the culture supernatant was removed from each well, and a basal medium added with 10% Cell Counting Kit-8 (DOJINDO) was dispensed to each well by 200 μL. After dispensing, the culture plate was transferred to an incubator set to 37° C., 5% CO2, 95% air and 100% humidity and incubated for 2 hr. The supernatant (100 μL) was transferred to a 96 well culture plate for tissue culture (Corning), and the absorbance of each well at 450 nm was measured with a microplate reader (Dainippon Sumitomo Pharma Co., Ltd.), and used as an index of cell number increase.
(§4) The values of the positive control group and the compound B or compound C addition group were calculated based on the average absorbance of the non-addition group as 100%, and the non-addition group was compared with the compound B or compound C addition group and positive control group according to the Dunnett multiple comparison test (one-tailed). A critical value of less than 5% as a result of the test was judged as significant.

[3] = test system: Normal human corneal epithelial cells; test: Effect on increase of cell number of normal human corneal epithelial cells (Experimental Example 1, Cell Counting Kit-8); conditions: positive control, final concentration 1 ng/mL, 24 hr, relative to non-addition group = 100%, mean ± SD
Protocol: as §1
As a test substance, [3-[2-[4-isopropyl-2-(4-trifluoromethyl)phenyl-5-thiazolyl]ethyl]-5-methyl-1,2-benzisoxazol-6-yl]oxyacetic acid (hereinafter to be referred to as compound A) was used. Compound A was dissolved in ethanol (Wako Pure Chemical Industries, Ltd.) to a concentration 200-fold of the final concentration in a culture medium, and the solution was stored at −80° C. until immediately before use.
As a cell culture medium for consideration of the cell number-increasing effect by compound A, a culture medium (basal medium) obtained by adding insulin, hydrocortisone and transferrin contained in HCGS growth additive set (KURABO) to EpiLife (KURABO) was used.
Normal human corneal epithelial cells cryopreserved in liquid nitrogen were thawed and the cell number was counted. The total amount thereof was transferred to EpiLife added with all of the HCGS growth additive set (insulin, epidermal growth factor mEGF derived from mouse, hydrocortisone, transferrin, bovine brain hypophysis extract) (4 mL, complete medium), and suspended well therein. The cell suspension was seeded on a fibronectin-coated 24 well plate (Becton Dickinson) at a cell number of 2×10^4 cells/500 μL/well (1×10^4 cells/cm^2 since bottom area was 2 cm^2).
After completion of cell seeding, the culture plate was incubated in an incubator set to 37° C., 5% CO2, 95% air and 100% humidity for 24 hr, and the culture medium was changed to 400 μL of the basal medium (EpiLife added with insulin, hydrocortisone and transferrin from HCGS growth additives).
After 24 hr thereafter, the culture medium was changed to the following culture medium (each 400 μL). • [1] basal medium alone (non-addition group) • [2] basal medium+mEGF (final concentration: 1 ng/mL; positive control group) • [3] basal medium+compound A (final concentration: 0.1 nM, 1 nM, 0.01 μM, 0.1 μM; compound A addition group)
as §2
as §3, with “A,” for “B or compound C,”
as §4, with “A” for “B or compound C”

Row | Molecule | cell number increase ratio ([1]; 10^−6 M) [%] | cell number increase ratio ([1]; 10^−7 M) [%] | cell number increase ratio ([1]; 10^−8 M) [%] | effect on cell number of normal human corneal epithelial cells (in words) [2] | cell number increase rate ([2]; 10^−6 M, 24 hr stimulation) [%] | cell number increase rate ([2]; 10^−7 M, 24 hr stimulation) [%] | cell number increase rate ([2]; 10^−8 M, 24 hr stimulation) [%] | cell number increase rate [3] [%] | cell number increase rate ([2]; positive control, final concentration 1 ng/mL, 24 hr) [%]
1 | Cc1cc(C(=O)CCc2sc(-c3ccc(C(F)(F)F)cc3)nc2C(C)C)ccc1OCC(=O)O [compound B, [4-[3-[2-(4-trifluoromethyl)phenyl-4-isopropyl-5-thiazolyl]propionyl]-2-methylphenoxy]acetic acid] | 158.8 ± 15.2 | 174.4 ± 8.9 | 155.0 ± 28.0 | increase the cell number of normal human corneal epithelial cells | 254.3 ± 11.7 | 256.4 ± 11.0 | 252.4 ± 34.7 |  | 
2 | mEGF: epidermal growth factor mEGF derived from mouse, from HCGS growth additive set (KURABO); positive control (NSYPGCPSSYDGYCLNGGVCMHIESLDSYTCNCVIGYSGDRCQTRDLRWWELR; UniProt P01132 977-1029, looked up) [reference compound] |  |  |  |  |  |  |  | 147.5 ± 47.2 | 232.8 ± 22.5
3 | Cc1cc(C(=O)CCc2nc(-c3ccc(Cl)cc3O)oc2C(C)C)ccc1OCC(=O)O [compound C, [4-[3-[2-(2-hydroxy-4-chlorophenyl)-5-isopropyl-4-oxazolyl]propionyl]-2-methylphenoxy]acetic acid] | 179.4 ± 7.5 | 175.2 ± 7.8 | 155.0 ± 11.6 | increase the cell number of normal human corneal epithelial cells | 260.2 ± 2.5 | 247.5 ± 14.1 | 243.3 ± 6.6 |  | 

Source: patent US8802705B2, “Pharmaceutical containing PPAR delta agonist” (Senju Pharmaceutical Co., Ltd., priority 2007, dated 2014)
